Results published in patent US10981882B1, “Compound for inhibiting IDO, a manufacturing method and a use thereof” (Shanghai JOYU Pharmatech Ltd., priority 2017, dated 2021).

What was measured:
[1] = molecular target: IDO protease in HEK293 cell (Homo sapiens (Human), UniProt P14902); assay: Inhibitory activity of IDO protease in HEK293 cell transfected with human IDO gene; format: cell-based; settings: for IC50: HEK293 cells transfected with pcDNA3.1(+)-hIDO, compounds incubated for 5 hr; for inhibiting effect on IDO protease: result in words, tested by the above assay
Sequence of IDO protease in HEK293 cell (P14902 whole entry): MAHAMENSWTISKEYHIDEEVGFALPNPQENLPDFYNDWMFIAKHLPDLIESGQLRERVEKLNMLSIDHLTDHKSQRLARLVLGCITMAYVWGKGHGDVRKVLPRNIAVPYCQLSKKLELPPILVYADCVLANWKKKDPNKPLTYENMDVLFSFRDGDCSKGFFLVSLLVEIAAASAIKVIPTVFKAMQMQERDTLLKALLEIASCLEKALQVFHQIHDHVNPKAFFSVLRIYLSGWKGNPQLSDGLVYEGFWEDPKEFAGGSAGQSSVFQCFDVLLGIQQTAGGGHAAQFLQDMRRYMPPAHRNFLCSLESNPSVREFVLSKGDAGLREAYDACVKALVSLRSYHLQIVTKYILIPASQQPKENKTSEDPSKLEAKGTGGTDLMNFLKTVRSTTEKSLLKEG
Protocol: 2. Determination of the Inhibitory Activity of IDO Protease in HEK293 Cell
HEK293 cells were seeded in a 96-well microplate at a density of 2.5×10^4 cells/well and were maintained in DMEM (containing 10% fetal bovine serum, 50 U/mL penicillin and […] streptomycin) at 37° C. 24 hours later, HEK-293 cells were transfected with pcDNA3.1 (+)-hIDO vector carrying human IDO gene using Lipofectamine 2000. After 24 hr, the tested compounds were added to the cells and incubated for 5 hr. 140 μL of supernatant was transferred to a well in a new 96-well microplate. 10 μL of 30% (w/v) trichloroacetic acid was added to each sample-containing well and reaction was incubated at 65° C. for 15 min. The reaction mixture was centrifuged at 13000×g for 10 min. The supernatant was mixed with p-(dimethylamino)benzaldehydein acetic acid in the same volume. The yellow pigment derived from kynurenine was measured for absorbance (D) value at 480 nm using a microplate reader.
The inhibitory activity of compounds prepared in Example 1-19 against the IDO protease in HEK293 cell was determined with the above test.

human IDO1 protease = human IDO1 protease (Homo sapiens (Human), UniProt P14902); assay: Inhibitory activity against human IDO1 protease (recombinant enzyme, kynurenine absorbance at 480 nm); format: biochemical; settings: recombinant human IDO1, L-Tryptophan substrate, 30 min at 37° C.
Sequence of human IDO1 protease (P14902 whole entry): as above
Protocol: The inhibitory activity of extracorporal human IDO1 protease was tested through the following method. The inhibition effect of compounds of the present invention against the human IDO1 protease was determined through the method.
(1) Preparation of Human Recombinant IDO1 Protease
BL21 E. Coli were transformed with a correct sequences PET28a-hIDO1 vector. A single colony was inoculated in Luria-Bertani (LB) medium at 37° C. Bacterial cells were then collected through centrifugation. The cell pellets were sonicated, then centrifuged at 4° C. The supernatant was then collected and purified by Ni chromatography to give pure rhIDO1 protease.
(2) The Test of the Compounds
IDO1 enzymatic assay was carried out in a reaction mixture (500 μL/well) containing 50 mmol/L potassium phosphate buffer, 400 μg/mL catalase, 40 mmol/L ascorbic acid, 20 μmol/mL methylene blue, […] L-Tryptophan and the test compound. After the mixture was incubated for 3˜5 min at 37° C., recombinant human IDO1 was added to. The mixture was incubated for another 30 min at 37° C. and the reaction was stopped by adding 200 μL of 30% (w/v) trichloroacetic acid. After heating in a water bath pot at 65° C. for 15 min and centrifugation at 13800×g for 10 min. 100 μL of supernatant was transferred into a well of a 96-well microplate and mixed with the same volume of 2% (w/v) p-(dimethylamino)benzaldehyde in acetic acid. […]. When the color of the mixture became yellow, the mixture was measured for absorbance (D) value at 480 nm using microplate reader.
The inhibitory activity of compounds of the present invention against the human IDO1 protease was determined with the above test.

IC50 [1] [nM] | IC50 (human IDO1 protease) [nM] | inhibiting effect on IDO protease [1] | Compound
37 | 83 |  | NS(=O)(=O)NC1CCN(Nc2nonc2C(=NO)Nc2ccc(F)c(Br)c2)CC1 [Example 15, N-(3-bromo-4-fluorophenyl)-N′-hydroxy-4-((4-(sulfamoylamino)piperidin-1-yl)amino)-1,2,5-oxadiazole-3-carboximidamide]
52 | 59 |  | NS(=O)(=O)NCCC1CCCC(Nc2nonc2C(=NO)Nc2ccc(F)c(Br)c2)C1 (centres unmarked) [Example 10, N-(3-bromo-4-fluorophenyl)-N′-hydroxy-4-((3-(2-(sulfamoylamino)ethyl)cyclohexyl)amino)-1,2,5-oxadiazole-3-carboximidamide]
10 | 15 |  | NS(=O)(=O)NC1CCC(Nc2nonc2/C(=N/O)Nc2ccc(F)c(Br)c2)CC1 (centres unmarked) [Example 17, N-(3-bromo-4-fluorophenyl)-N′-hydroxy-4-((4-(sulfamoylamino)cyclohexyl)amino)-1,2,5-oxadiazole-3-carboximidamide]
42 | 63 |  | NS(=O)(=O)NC1CCC(Nc2nonc2C(=NO)Nc2ccc(F)c(Br)c2)C1 (centres unmarked) [Example 16]
27 | 64 |  | NS(=O)(=O)NCC1CCCC(Nc2nonc2C(=NO)Nc2ccc(F)c(Br)c2)C1 (centres unmarked) [Example 9, N-(3-bromo-4-fluorophenyl)-N′-hydroxy-4-((3-((sulfamoylamino)methyl)cyclohexyl)amino)-1,2,5-oxadiazole-3-carboximidamide]
48 | 108 |  | NS(=O)(=O)NCC1CCC(Nc2nonc2C(=NO)Nc2ccc(F)c(Br)c2)C1 (centres unmarked) [Example 14, N-(3-bromo-4-fluorophenyl)-N′-hydroxy-4-((3-((sulfamoylamino)methyl)cyclopentyl)amino)-1,2,5-oxadiazole-3-carboximidamide]
18 | 43 |  | NS(=O)(=O)NC1CCCC(CNc2nonc2C(=NO)Nc2ccc(F)c(Br)c2)C1 (centres unmarked) [Example 11, N-(3-bromo-4-fluorophenyl)-N′-hydroxy-4-(((3-(sulfamoylamino)cyclohexyl)methyl)amino)-1,2,5-oxadiazole-3-carboximidamide]
23 | 60 |  | NS(=O)(=O)NC1CCCC(CCNc2nonc2C(=NO)Nc2ccc(F)c(Br)c2)C1 (centres unmarked) [Example 12, N-(3-bromo-4-fluorophenyl)-N′-hydroxy-4-((2-(3-(sulfamoylamino)cyclohexyl)ethyl)amino)-1,2,5-oxadiazole-3-carboximidamide]
3 | 6 |  | NS(=O)(=O)N[C@H]1CC[C@H](Nc2nonc2C(=NO)Nc2ccc(F)c(Br)c2)CC1 [Example 18, trans-N-(3-bromo-4-fluorophenyl)-N′-hydroxy-4-(((1r,4r)-4-(sulfamoylamino)yclohexyl)amino)-1,2,5-oxadiazole-3-carboximidamide]
5 | 12 |  | NS(=O)(=O)N[C@H]1CC[C@@H](Nc2nonc2C(=NO)Nc2ccc(F)c(Br)c2)CC1 [Example 19, cis-N-(3-bromo-4-fluorophenyl)-N′-hydroxy-4-(((1s,4s)-4-(sulfamoylamino)cyclohexyl)amino)-1,2,5-oxadiazole-3-carboximidamide]

Second part, the compound before the results:

Compound | IC50 [1] [nM] | IC50 (human IDO1 protease) [nM] | inhibiting effect on IDO protease [1]
NS(=O)(=O)NCCC1CCC(CCNc2nonc2C(=NO)Nc2ccc(F)c(Br)c2)CC1 (centres unmarked) [Example 8, N-(3-bromo-4-fluorophenyl)-N′-hydroxy-4-((2-(4-(2-(sulfamoylamino)ethyl)cyclohexyl)ethyl)amino)-1,2,5-oxadiazole-3-carboximidamide] | 45 | 51 | 
NS(=O)(=O)N[C@H]1CC[C@H](CNc2nonc2C(=NO)Nc2ccc(F)c(Br)c2)CC1 [Example 3, Trans-N-(3-bromo-4-fluorophenyl)-N′-hydroxy-4-(((4-(sulfamoylamino)cyclohexyl)methyl)amino)-1,2,5-oxadiazole-3-carboximidamide] | 13 | 38 | 
NS(=O)(=O)NC1CCC(CCNc2nonc2C(=NO)Nc2ccc(F)c(Br)c2)CC1 (centres unmarked) [Example 4, N-(3-bromo-4-fluorophenyl)-N′-hydroxy-4-((2-(4-(sulfamoylamino)cyclohexyl)ethyl)amino)-1,2,5-oxadiazole-3-carboximidamide] | 36 | 22 | 
NS(=O)(=O)NC[C@H]1CC[C@H](Nc2nonc2C(=NO)Nc2ccc(F)c(Br)c2)CC1 [Example 1, trans-N-(3-bromo-4-fluorophenyl)-N′-hydroxy-4-((4-((sulfamoylamino)methyl)cyclohexyl)amino)-1,2,5-oxadiazole-3-carboximidamide] | 8 | 16 | 
N=C(Nc1ccc(F)c(Br)c1)c1nonc1NCC1CCCC(CCNS(N)(=O)=O)C1 (centres unmarked) [Compound 15] |  |  | showed the inhibiting effect
N=C(Nc1ccc(F)c(Br)c1)c1nonc1NCCC1CCCC(CNS(N)(=O)=O)C1 (centres unmarked) [Compound 14] |  |  | showed the inhibiting effect
NS(=O)(=O)NC1CCC(CNc2nonc2C(=NO)Nc2ccc(F)c(Br)c2)C1 (centres unmarked) [Compound 19] |  |  | showed the inhibiting effect
NS(=O)(=O)NCCC1CCCC(CCNc2nonc2C(=NO)Nc2ccc(F)c(Br)c2)C1 (centres unmarked) [Compound 16] |  |  | showed the inhibiting effect
NS(=O)(=O)NCC1CCC(CNc2nonc2C(=NO)Nc2ccc(F)c(Br)c2)CC1 (centres unmarked) [Example 5, N-(3-bromo-4-fluorophenyl)-N′-hydroxy-4-(((4-((sulfamoylamino)methyl)cyclohexyl)methyl)amino)-1,2,5-oxadiazole-3-carboximidamide] | 14 | 45 | 
NS(=O)(=O)NCC[C@H]1CC[C@H](Nc2nonc2C(=NO)Nc2ccc(F)c(Br)c2)CC1 [Example 2, trans-N-(3-bromo-4-fluorophenyl)-N′-hydroxy-4-((4-(2-(sulfamoylamino)ethyl)cyclohexyl)amino)-1,2,5-oxadiazole-3-carboximidamide] | 36 | 46 | 
NS(=O)(=O)NCC1CCC(CCNc2nonc2C(=NO)Nc2ccc(F)c(Br)c2)CC1 (centres unmarked) [Example 6, N-(3-bromo-4-fluorophenyl)-N′-hydroxy-4-((2-(4-((sulfamoylamino)methyl)cyclohexyl)ethyl)amino)-1,2,5-oxadiazole-3-carboximidamide] | 39 | 48 | 
N=C(Nc1ccc(F)c(Br)c1)c1nonc1NC1CCC(CCNS(N)(=O)=O)C1 (centres unmarked) [Compound 17] |  |  | showed the inhibiting effect
NS(=O)(=O)NCCC1CCC(CNc2nonc2C(=NO)Nc2ccc(F)c(Br)c2)CC1 (centres unmarked) [Example 7, N-(3-bromo-4-fluorophenyl)-N′-hydroxy-4-(((4-(2-(sulfamoylamino)ethyl)cyclohexyl)methyl)amino)-1,2,5-oxadiazole-3-carboximidamide] | 21 | 74 | 
